Here are results for 4 compounds from ChEMBL document CHEMBL1201862, “PubChem BioAssay data set” (2004).

Molecules are shown by their SMILES. The source made the active and inactive calls. Rule as the data show it, for most assays here: actives have a measured EC50 and inactives only a lower limit.

Test [1] can be described thus: NIH-3T3 fibroblast cytotoxicity, dose response, cytotoxicity control, cell-based, fluorescence, Alamar Blue, secondary assay (AID 2327).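 Also: NIH-3T3 mouse fibroblasts cultured with fluconazole at 8 µg/mL.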 In kind it is functional. In general terms: Alamar Blue is a resazurin reagent that responds to reducing activity.
For another test, the system named is INS1. Kind of test: INS-1E survival protection against cytokine death – cell-based, luminescence, retest, dose response (AID 449756).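 Also: cell death triggered by IL-1 beta plus TNF-alpha plus IFN-gamma mixture; protective hits raise ATP signal compared with cytokine alone wells.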 The note with it: Rattus norvegicus. The format is functional.
A short description of test [2]: Counterscreen for AddAB inhibitors: absorbance-based bacterial cell-based high throughput dose response assay for inhibitors of bacterial viability. [Related pubchem assays (depositor defined):AID435030, AID449728, AID449731, AID488942, AID488955, AID488956]. The format is functional. On the technique in general: The purpose of a counterscreen is to sort out artefacts and off-target activity.

The nature of test [3]: fluconazole-exposed Candida albicans growth modulators – fluorescence, retest, confirmation (AID 2467). In kind it is functional, cell-based.
In a further test the target is T1, Protein RecA (Mycobacterium tuberculosis, UniProt P9WHJ3).
T1 sequence (P9WHJ3 whole entry): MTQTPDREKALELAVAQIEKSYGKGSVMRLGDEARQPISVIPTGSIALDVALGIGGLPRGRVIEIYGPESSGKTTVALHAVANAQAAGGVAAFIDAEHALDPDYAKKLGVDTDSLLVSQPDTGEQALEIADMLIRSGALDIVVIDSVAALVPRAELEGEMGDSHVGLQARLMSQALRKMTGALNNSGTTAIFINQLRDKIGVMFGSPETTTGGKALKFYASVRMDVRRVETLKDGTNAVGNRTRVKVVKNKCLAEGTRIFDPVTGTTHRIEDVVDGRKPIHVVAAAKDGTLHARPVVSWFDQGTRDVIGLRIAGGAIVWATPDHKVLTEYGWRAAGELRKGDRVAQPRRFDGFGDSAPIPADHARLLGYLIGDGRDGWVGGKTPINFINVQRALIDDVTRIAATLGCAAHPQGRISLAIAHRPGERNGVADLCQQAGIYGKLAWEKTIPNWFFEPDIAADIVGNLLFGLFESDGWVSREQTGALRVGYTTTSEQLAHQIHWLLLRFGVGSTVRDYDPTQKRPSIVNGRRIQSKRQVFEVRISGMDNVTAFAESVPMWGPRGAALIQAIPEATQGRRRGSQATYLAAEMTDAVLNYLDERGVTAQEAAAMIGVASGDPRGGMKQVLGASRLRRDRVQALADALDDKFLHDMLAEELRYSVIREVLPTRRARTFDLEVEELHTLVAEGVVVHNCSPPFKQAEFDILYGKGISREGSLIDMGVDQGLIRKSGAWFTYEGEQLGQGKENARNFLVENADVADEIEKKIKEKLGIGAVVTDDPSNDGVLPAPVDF
Kind of test: Fluorescence Cell-Free Homogeneous Dose Retest to Identify Inhibitors of RecA-Intein Splicing Activity. [Related pubchem assays (depositor defined):AID2097, AID2223, AID489010, AID492950]. The format is functional.

The test system of a further test is Streptococcus. Kind of test: GAS UMAA2166 growth inhibition – luminescence, BacTiterGlo, counter-screen for streptokinase expression inhibitor project, dose response (AID 1915).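 Also: potency for reduction of bacterial viability or growth.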 In kind it is functional, organism-based.
Test [4] has as its system Streptococcus sp. 'group A'. Kind of test: Streptococcus pyogenes SK(-)GAS viability under kanamycin – luminescence, BacTiterGlo, confirmation, counter-screen for streptokinase expression inhibitor project, dose response (AID 1900). The format is functional, organism-based.

A word on the EC50: it is the midpoint of the concentration-response curve. One may read the AC50 as the concentration giving half of the maximal activity seen. For orientation: IC50 means the concentration that inhibits the measured activity by half. For `Oc1c(C(c2ccccc2Cl)N2CCCC2)ccc2cccnc12` (stereo not drawn), the EC50 in test [1] is > 160000 nM (inactive); in test [3], 1080 nM (active). In the test on INS1, the AC50 was 3410 nM (active). Also, the IC50 in test [2] was 95300 nM (inactive).

For `[O-][N+]1=c2ccc(Nc3ccccc3)cc2=NC12CCCCC2`, the EC50 is 146000 nM (active) in test [1], 4370 nM (active) on Protein RecA and 1460 nM (active) in test [3]. Also, the AC50 in the test on INS1 is 5640 nM (active).

Regarding `CCc1ccc(S(=O)(=O)/N=C2\C=C(Nc3ccc(C(=O)O)cc3)C(=O)c3ccccc32)cc1`, the EC50 in the test on Streptococcus was 6260 nM (active); at Protein RecA, 124 nM (active); in test [4] it was 451 nM (active). For the same compound, the AC50 with INS1 is 11300 nM (active).

With `COc1cccc(/C=N/Nc2ccc([N+](=O)[O-])cn2)c1O`, the EC50 in test [1] is 1610 nM (inconclusive); in the test on Streptococcus, 1650 nM (active); in test [4] it was 912 nM (active); in test [3] it was 1510 nM (active). Besides, the half-maximal activity concentration (AC50) in the test with INS1 is 2140 nM (active). Besides, in test [2], the IC50 is > 118000 nM (inactive).
